US20170354669A1, “DISRUPTION OF THE INTERACTION BETWEEN AMYLOID BETA PEPTIDE AND DIETARY LIPIDS” (The Trustees of Columbia University in the City of New York, priority 2016, published 2017)
Several values for one entry are separate records, joined by “and”; a condition that tells them apart may be missing. Equal values may be shown once. Entries after “also recorded” stand apart in the source; their conditions may differ.

How the values were obtained:
Aβ42 = molecular target: T1, Aβ42 (Homo sapiens, UniProt P05067); experiment: Lipid binding assay: Aβ42-FAM binding to plate-bound amine-containing lipids
T1 construct: SensoLyte Fluorescent β-Amyloid1-42 Sampler Kit, Anaspec; purchased Anaspec
From the text: Maleic Anhydride Activated plates (Pierce Amine-binding, 96-well plates, Thermo Scientific) were washed in wash buffer (PBS: Phosphate buffered saline, 0.15 M sodium chloride, pH 7.2 containing 0.05% Tween-20 Detergent, PBST, Thermo Scientific) 4 times to activate reactive maleic anhydride functional group. Amine containing lipids were PE containing docosahexaenoyl (22:6) and stearoyl (18:0) acyl chains (22:6/18:0 PE) or two stearoyl acyl chains (di18:0 PE) were from Avanti Polar Lipids. 22:6/18:0 PE was obtained in chloroform, dried down and solubilized at 200 pmol/μL in 1% n-octylglucoside (NOG, Santa Cruz) in PBS and sonicated for […]. di18:0 PE was obtained as a powder, solubilized at 200 pmol/μl in 1% NOG and bath sonicated for 5 minutes. Lipids were incubated at a volume of 100 μL in activated maleic anhydride plates at increasing concentration at 4° C. in PBS/1% NOG. After incubation, lipids were removed and SuperBlock Blocking Buffer/PBS (Thermo) was added at a volume of […] for 1 hour at room temperature. Plates were then washed 4 times with PBST (Thermo Scientific). Fluorescently labeled amyloid β-peptide (SensoLyte Fluorescent β-Amyloid1-42 Sampler Kit, Anaspec) was prepared with […], Component B, Solvent for β-amyloid (Anaspec) as per the commercial protocol and then diluted in deionized water to a concentration of 100 μM. […] Plates were then washed 4 times in PBST and fluorescence was detected using Tecan Infinite 200 at wavelengths 494/521 (excitation, emission) using the Optimal Gain setting.
Assays were done in triplicate wells and reported as mean+/−standard error. Binding kinetics and best fit curve fitting were accomplished using Prism Graphpad software.
Lipid containing long chain polyunsaturated fatty acid 22:6, docosahexaenoic acid (DHA) and an amine containing headgroup, phosphatidylethanoloamine (PE) was bound to maleic anhydride activated plates which bind to free primary amine functional groups at neutral and alkaline pH. […] Specific binding was calculated by subtracting background binding of di18:0 PE.

APPsw+ mice [1] = experiment: Nesting behavior after intranasal treatment; type: in vivo; details: 10 days intranasal low dose 0.5 mg/kg every other day, vs saline treated APPsw+, FIG. 4A
Protocol: SDPC was obtained from Avanti Polar Lipids (850472C) in chloroform, dried under vacuum conditions and resuspended in 0.9% saline (0.9% sodium chloride injection, USP, NDC 0409-7983-61, Hospira) containing 0.2% (weight:volume) methyl cellulose (average Mn 40,000, viscosity: 400 cP, CAS 9004-67-5, Sigma-Aldrich 274429) to aid in solubilization. A control solution of 0.9% saline containing 0.2% methyl cellulose was prepared at the same time without SDPC. A concentration of 3 mg/ml was used for doses 1-15 and 12 mg/ml was used for doses 16-18 (FIG. 3). Brief (3-5 minutes) bath sonication was used to improve solubility of 12 mg/ml concentration. Mice were treated for 10 days at a low dose of SDPC intranasally administered 2.5 uL each nostril (5 μL total dose) for 0.5 mg/kg every other day assuming average mouse weight of 30 g (0.03 kg) (FIG. 3). After 10 days, dose was escalated to 2 mg/kg every other day for an additional 19 days (total treatment time […]). Doses 16-18 were administered daily. Non-invasive behavioral testing using novel object recognition (118) and Nesting behavior (114) were used to assess behavioral function. Deficits were expected in APPsw+ (Tg) mice and compared to wild type littermates of the same age (13-14 months). […]

APPsw+ mice [2] = experiment: Novel object recognition (NOR) training and testing, activity and exploration; type: in vivo; details: 10 days intranasal low dose
APPsw+ mice [3] = experiment: Open Field testing; type: in vivo; details: 10 days intranasal low dose, following NOR testing; FIG. 4D
Protocol: FIGS. 4A-4D. 10 days treatment with low dose SDPC. (A) After 10 days treatment (Tx) with low dose phosphatidylcholine (PC) containing docosahexaenoyl (22:6) and stearoyl (18:0) acyl chains, 18:0-22:6 PC; 1-stearoyl-2-docosahexaenoyl-sn-glycero-3-phosphocholine (CAS Number 59403-52-0; Synonyms: 1-octadecanoyl-2-(4Z,7Z,10Z,13Z,16Z,19Z-docosahexaenoyI)-sn-glycero-3-phosphocholine and PC(18:0/22:6(4Z,7Z,10Z,13Z,16Z,19Z))) (SDPC) intranasally, nesting score was assessed as described before (114). The number of nestlettes (from 3 initially placed in cage) was estimated and exact weight of remaining nestlettes was determined in grams (g) from initial 3 nestlettes (approximately 2 g). (B) Activity during novel object recognition (NOR) training was assessed after 10 days intranasal SDPC. Grooming behavior, free rearing, wall rearing and center crossing events are shown and were summed in total events. (C) Time spent with each identical object during NOR training. (D) Activity during Open Field testing 24 hours after NOR training (note, no difference in novel object discrimination (NOD) index was found. Standard error is shown for means of Saline treated APPsw+(control) (n=4); SDPC treated APPsw+ (n=5) and wild type receiving no treatment (n=4). Significance was determined for […] using Student's t-test. […]

APPsw+ mice [4] = experiment: Novel object recognition (NOR) training and testing, activity and exploration; type: in vivo
Protocol: FIGS. 6A-6B. 30 days treatment with escalating dose SDPC. (A) Mice were placed in a box with two identical objects for 10 minutes on the training day 1. […] One object was replaced with a novel object for testing (NOD index). The same data is shown to scale in FIG. 6B (Testing (immediate)). Twenty-four hours later (Testing (24 hours)), mice were placed in the same context with one of the original identical objects (Familiar) and a second novel object (Novel). The time spent with each object was recorded. (B) For testing, novel object discrimination (NOD index) is assessed using the equation [(time novel)/(time familiar+time novel)]. NOD index of 0.5 represents equal time with each object. NOD>0.5 represents more time spent with novel object. Standard error is shown for means of Saline treated APPsw+(control) (n=4); SDPC treated APPsw+ (n=5) and wild type receiving no treatment (n=4). Significance was determined for […] using Student's t-test. SDPC was obtained from Avanti Polar Lipids (850472C) in chloroform, dried under vacuum conditions and resuspended in 0.9% saline (0.9% sodium chloride injection, USP, NDC 0409-7983-61, Hospira) containing 0.2% (weight:volume) methyl cellulose (average Mn 40,000, viscosity: 400 cP, CAS 9004-67-5, Sigma-Aldrich 274429) to aid in solubilization. A control solution of 0.9% saline containing 0.2% methyl cellulose was prepared at the same time without SDPC. A concentration of 3 mg/ml was used for doses 1-15 and 12 mg/ml was used for doses 16-18 (FIG. 3). Brief (3-5 minutes) bath sonication was used to improve solubility of 12 mg/ml concentration. Mice were treated for 10 days at a low dose of SDPC intranasally administered 2.5 uL each nostril (5 μL total dose) for 0.5 mg/kg every other day assuming average mouse weight of 30 g (0.03 kg) (FIG. 3). After 10 days, dose was escalated to 2 mg/kg every other day for an additional 19 days (total treatment time […]). Doses 16-18 were administered daily. Non-invasive behavioral testing using novel object recognition (118) and Nesting behavior (114) were used to assess behavioral function. Deficits were expected in APPsw+ (Tg) mice and compared to wild type littermates of the same age (13-14 months). APPsw+ mice were treated (Tx) with either control solution of 0.9% saline containing 0.2% methyl cellulose [Saline] or SDPC in 0.9% saline containing 0.2% methyl cellulose [SDPC]. […] Significant changes were seen using Student's t-test comparing SDPC and wild type (non-treated) [WT Ntx] and comparing saline and WT Ntx, but not when comparing SDPC and saline groups likely due to small sample size (n=4-5).

[5] = molecular target: T2, Aβ42-FAM bound lipids containing 22:6 (Homo sapiens, UniProt P05067); experiment: Competition of Aβ42-FAM binding to plate-bound 22:6 lipid; details: competitor peptide 5×, 1 μM; FIG. 1C
T2 construct: SensoLyte Fluorescent β-Amyloid1-42 Sampler Kit, Anaspec; purchased Anaspec
Protocol: Scrambled Aβ or unlabeled Aβ42 peptides (Anaspec) were diluted to 100 μM as above and then diluted in SuperBlock Blocking buffer to 1 μM, incubated for 1 hour at room temperature. Plates were washed and FAM fluorescence was read as above. Lipid containing long chain polyunsaturated fatty acid 22:6, docosahexaenoic acid (DHA) and an amine containing headgroup, phosphatidylethanoloamine (PE) was bound to maleic anhydride activated plates which bind to free primary amine functional groups at neutral and alkaline pH. All binding and washing steps were done in PBS, PBST and SuperBlock PBS to maintain pH at 7.2. A control acyl chain lipid hypothesized not to bind to Aβ peptide was 18:0, stearic acid containing PE (di18:0). After lipids were bound and unreacted binding sites were blocked using SuperBlock, Aβ42 peptide fluorescently tagged with FAM (Anaspec) was incubated with lipid bound wells. […] The dissociation constant Kd was calculated to be 300 nM. Specific binding was calculated by subtracting background binding of di18:0 PE.

CC/C=C\C/C=C\C/C=C\C/C=C\C/C=C\C/C=C\CCC(=O)O [DHA, docosahexaenoic acid]
Kd (Aβ42; read-out: dissociation constant Kd of Aβ binding to DHA): ~300 nM and 300 nM

CC/C=C\C/C=C\C/C=C\C/C=C\C/C=C\C/C=C\CCC(=O)O[C@H](COC(=O)CCCCCCCCCCCCCCCCC)COP(=O)([O-])OCC[N+](C)(C)C [SDPC, 1-stearoyl-2-docosahexaenoyl-sn-glycero-3-phosphocholine]
nesting behavior (APPsw+ mice [1]): trend toward improvement; also recorded: non-significant trend for improvement
NOR discrimination (NOD index) 24 hours after training (APPsw+ mice [2]): no discrimination was found; also recorded: no difference
activity during NOR training (wall rearing, free rearing, total activity level) (APPsw+ mice [2]; vs saline treated APPsw+, FIG. 4B): trend toward improvement; also recorded: non-significant trend for improvement
exploration: time spent with identical objects during NOR training (APPsw+ mice [2]; FIG. 4C): trend toward improved exploratory behavior; also recorded: non-significant trend toward exploration activity
activity in the open field test (APPsw+ mice [3]): continued improvement of activity level; also recorded: restored to the level of wild type non-treated mice
discrimination of one displaced identical object (hippocampal function) (APPsw+ mice [4]; 30 days escalating dose, training day 2, FIG. 6A): no discrimination was determined
number of wall rears and total activity events (APPsw+ mice [4]; 30 days intranasal escalated dose (to 2 mg/kg), SDPC vs saline treated APPsw+, FIG. 5): significant improvement
NOR deficits: time spent with a novel object (APPsw+ mice [4]; 30 days intranasal escalated dose, FIG. 6): significant amelioration
novel object discrimination index (NOD index) (APPsw+ mice [4]; 30 days intranasal escalated dose, FIG. 6B): significant changes were not observed; also recorded: trend for amelioration

CCCCCCCCCCCCCCCCCC(=O)OC[C@H](COP(=O)(O)OCCN)OC(=O)CCCCCCCCCCCCCCCCC [di18:0 PE, reference compound]
binding of Aβ42-FAM to plate-bound lipid (Aβ42; FIGS. 1A and 1B, di18:0 at concentrations 10,000 pmol/well and below): very low binding activity
binding of Aβ42-FAM to plate-bound lipid at the highest concentrations (Aβ42; only at the highest concentrations of lipid): modest binding

unlabeled Aβ42 peptide: unlabeled Aβ42 peptide (Anaspec) used as competitor
competitive disruption of Aβ42-FAM binding to 22:6 lipid [5]: competitively disrupted
